Data taken from patent EP1582583A2 (priority 2000, dated 2001).

Tests used:
E. indica glypS EPSPS = target: T1, E. indica glypS EPSPS (Eleusine indica, UniProt Q95AK0); experiment: enzyme kinetics, Km(PEP) and Ki (glyphosate); assay type: biochemical; conditions: apparent Km, saturating S3P
T1 sequence (Q95AK0 1-445): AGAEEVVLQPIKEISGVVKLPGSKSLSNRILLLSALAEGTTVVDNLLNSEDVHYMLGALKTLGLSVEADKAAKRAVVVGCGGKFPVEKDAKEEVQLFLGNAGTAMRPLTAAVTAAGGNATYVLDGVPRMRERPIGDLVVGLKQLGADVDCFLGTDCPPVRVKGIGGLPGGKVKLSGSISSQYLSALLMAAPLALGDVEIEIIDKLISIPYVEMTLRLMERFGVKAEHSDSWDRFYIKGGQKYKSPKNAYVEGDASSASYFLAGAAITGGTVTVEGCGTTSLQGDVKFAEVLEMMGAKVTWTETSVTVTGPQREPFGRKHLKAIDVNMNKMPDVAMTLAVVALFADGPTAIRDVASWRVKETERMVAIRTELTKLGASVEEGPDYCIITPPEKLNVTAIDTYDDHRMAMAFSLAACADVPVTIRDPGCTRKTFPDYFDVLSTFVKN
Procedure: Calculations, graphical representation, and statistical analysis of enzyme kinetic data are performed using GraFit version 3.0 software (Erithacus Software Ltd., Staines, U.K.).

[1] = test system: E. coli SR481 cells transformed with pMON45364 (Ei.EPSPS:glypR); experiment: growth rates of transgenic E. coli on glyphosate containing media; assay type: cell-based; conditions: growth (O.D.595) in minimal M9 media with 0.0, 0.5, 1.5 or 5.0 mM glyphosate; cells expressing EPSPS of tolerant biotype (pMON45364) versus sensitive biotype (pMON45365); Figure 3
Excerpt: The EPSP synthase mature protein-coding regions isolated from the glyphosate tolerant and glyphosate sensitive E. indica biotypes, can be directly compared for their ability to confer tolerance to glyphosate in transgenic hosts. […] This was inserted by ligation to facilitate expression and cloning at the ATG start codon of an open reading frame.
These sequences are employed in RT-PCR reactions to generate expression cassettes suitable for cloning into pMON45337 cut with the restriction enzymes Nde1 and EcoR1. RT-PCR reactions are performed with total RNAs extracted from frozen crown samples using the RNeasy Plant Mini Kit (cat.# 74904, Qiagen Inc., Valencia, CA) per manufacturer's instructions. Oligo·dT-primed first-strand cDNAs are prepared from 5 µg samples of total RNA using the Superscript Pre-Amplification System (cat.# 18089-011, Life Technologies, Rockville, MD) per manufacturer's instructions. Two µl of first-strand cDNA are then used to generate E. indica EPSP synthase expression cassettes via polymerase chain reaction. The oligonucleotides are added in 50 µl RT-PCR reactions at a final concentration of 0.4 µM. […]

[2] = target: EPSPS activity in extracts from the glyphosate tolerant E. indica biotype (Eleusine indica, UniProt Q95AK1); conditions: read-out: I50 (glyphosate); tolerant biotype plant extract; 0.5 mM PEP, 1 mM shikimate-3-phosphate, 25°C; Figure 4
Sequence of EPSPS activity in extracts from the glyphosate tolerant E. indica biotype (Q95AK1 entry or part of it): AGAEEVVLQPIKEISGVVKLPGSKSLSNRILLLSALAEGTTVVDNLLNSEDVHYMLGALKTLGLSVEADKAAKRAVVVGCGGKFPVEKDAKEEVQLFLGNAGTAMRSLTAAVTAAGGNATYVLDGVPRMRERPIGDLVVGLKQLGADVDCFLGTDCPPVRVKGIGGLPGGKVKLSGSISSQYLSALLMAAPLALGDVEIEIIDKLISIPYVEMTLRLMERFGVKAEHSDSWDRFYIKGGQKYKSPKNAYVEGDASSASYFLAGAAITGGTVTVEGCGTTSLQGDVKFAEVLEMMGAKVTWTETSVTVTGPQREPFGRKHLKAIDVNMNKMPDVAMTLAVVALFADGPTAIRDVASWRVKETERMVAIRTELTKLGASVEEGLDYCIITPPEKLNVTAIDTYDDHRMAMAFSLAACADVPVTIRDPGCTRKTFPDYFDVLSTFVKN
Procedure: Preparation of extracts and radiometric EPSP synthase assays are performed using methods adapted from published procedures (Padgette et al., J. Biol. Chem. 266:22364-22369 (1991). Crown regions are dissected from whole plants, pulverized under liquid nitrogen with a mortar and pestle, then stored at -80°C prior to extraction. Homogenates are prepared from 0.5 g tissue per sample in 25 ml extraction buffer (100 mM TrisCl, 10 % glycerol, 1 mM EDTA, 1 mM benzamidine, 1 mM dithiothreitol, 1 mM 4-(2-aminoethyl)-benzenesulfonyl floride HCl, 0.1 mM leupeptin, pH 7.4) at 4°C using a model PT3000 Polytron homogenizer (Brinkman Instuments Inc., Westbury, NY). Debris is removed by 0.2 µm filtration, then the resulting supernatant is concentrated and desalted using an Ultrafree-15 centrifugal filtration unit (cat.# UFV2-BGC-10, Millipore Corp., Bedford, MA). Final sample volumes are approximately 0.5 ml. Protein concentrations are determined spectrophotometrically using the Bio-Rad protein assay reagent (cat.#500-0006, Bio-Rad Laboratories, Hercules, CA). EPSPS specific activities are determined by assaying 10 µl extract at 25°C for 5- 15 min. […] Reactions are quenched with the addition of 50 µl 9:1 ethanol: 0.1 M acetic acid. […]

[3] = target: native EPSPS from E. coli (Escherichia coli, UniProt P0A6D3); conditions: read-out: apparent Ki for glyphosate; cited from earlier work
Sequence of native EPSPS from E. coli (P0A6D3 whole entry): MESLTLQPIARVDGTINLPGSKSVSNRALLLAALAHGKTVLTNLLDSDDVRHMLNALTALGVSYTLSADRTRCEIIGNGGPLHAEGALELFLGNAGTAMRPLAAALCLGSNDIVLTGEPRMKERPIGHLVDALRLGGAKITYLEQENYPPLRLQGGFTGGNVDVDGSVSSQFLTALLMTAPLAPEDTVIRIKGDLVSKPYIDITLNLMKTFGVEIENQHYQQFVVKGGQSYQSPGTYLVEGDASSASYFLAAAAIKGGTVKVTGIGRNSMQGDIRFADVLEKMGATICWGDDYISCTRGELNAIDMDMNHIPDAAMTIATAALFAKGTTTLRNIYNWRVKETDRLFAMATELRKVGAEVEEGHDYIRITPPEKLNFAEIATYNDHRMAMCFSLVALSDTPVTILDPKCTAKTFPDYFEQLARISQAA

Row | SMILES | KmPEP (E. indica glypS EPSPS) | increase in tolerance to glyphosate [1] | IC50 [2] | Ki [3]
1 | C=C(OP(=O)(O)O)C(=O)O [PEP, phosphoenolpyruvate] | 5 M | – | – | –
2 | O=C(O)CNCP(=O)(O)O [glyphosate, N-phosphonomethylglycine] | – | approximately three-fold | ~16 µM | 0.5 µM
